Key:
Assay in all cases: competitive isoTOP-ABPP
Type in all cases: binding
[1] = target: T1, DCTN2 Dynactin subunit 2 (Homo sapiens, UniProt Q13561); conditions: for isoTOP-ABPP ratio (R) at liganded lysine Q13561_K175: sol, 231
T1 construct: isoTOP-ABPP experiments performed in cell lysates (in vitro); endogenous in cells; host or cells: soluble proteome of human cancer cell lines (MDA-MB-231, Ramos, Jurkat)
Protocol: (§1) In vitro covalent fragment treatment for isoTOP-ABPP. All compounds were made up as solutions in DMSO (100×) and were used at a final concentration of 50 μM for activated esters and 100 μM for guanidinylating agents. For each profiling sample, 0.5 ml of lysate was treated with 5 μl of the 100× compound stock solution or 5 μl of DMSO. Samples were treated with activated esters for
(§2) STP-alkyne labeling and click chemistry. For concentration-dependent reactivity measurements by isoTOP-ABPP, 0.5 ml proteome aliquots were treated at ambient temperature with 1 mM STP-alkyne 1 (5 μl of 100 mM stock in DMSO) and 0.1 mM STP alkyne 1 (5 μl of 10 mM stock in DMSO), respectively. For competitive isoTOP-ABPP, after in vitro fragment treatment (detailed above), the samples were labeled for 1 h at ambient temperature with 0.1 mM STP-alkyne 1 (5 μl of 10 mM stock in DMSO). Samples were conjugated by copper-mediated azide-alkyne cycloaddition (CuAAC) to either the light (1 mM STP-alkyne or fragment treated) or heavy (0.1 mM STP-alkyne or DMSO treated) TEV tags (10 μl of 5 mM stocks in DMSO, final concentration=100 μM) using tris(2-carboxyethyl)phosphine hydrochloride
(§3) R value calculation and processing. The ratios of light and heavy MS1 peaks for each unique peptide were quantified with a CIMAGE software using default parameters (3 MS1 acquisitions per peak and signal to noise threshold set to 2.5). For reactivity measurements by isoTOP-ABPP, the R value was calculated from the ratio of MS1 peak areas, comparing the 1 mM STP alkyne sample (light TEV tag) with the 0.1 mM STP alkyne sample (heavy TEV tag). For competitive isoTOP-ABPP, the R value was calculated from the ratio of MS1 peak areas, comparing the DMSO treated sample (heavy TEV tag) with the compound treated sample (light TEV tag). […] Ratios for unique peptide entries are calculated for each experiment; overlapping peptides with the same modified lysine (for example, different charge states, MudPIT chromatographic steps or tryptic termini) are grouped together and the median ratio is reported as the final ratio (R). The peptide ratios reported by CIMAGE were further filtered to ensure the removal or correction of low-quality ratios in each individual data set. The quality filters applied were the following: removal of half tryptic peptides; for ratios with high standard deviations from the median (90% of the median or above) the lowest ratio was taken instead of the median; removal of peptides with R=20 and only a single MS2 event triggered during the elution of the parent ion; manual annotation of all the peptides with ratios of 20, removing any peptides with low quality elution profiles that remained after the previous curation steps (only done for competitive isoTOP-ABPP).
(§4) Cross-data processing for fragment screening. For compound treated samples, biological replicates of the same condition were averaged, if the standard deviation was below 60% of the mean; otherwise, for lysines with at least one R value <4 for a particular compound, the lowest value of the ratio set was taken. For lysines, where all R values for a particular compound were ≥4, the average was reported. For peptides containing several possible modified lysines, the lysine with the highest number of quantification events was used for analysis and the remaining, redundant peptides were reported as alternative modification sites. Peptides included in the aggregate dataset (those used for further bioinformatics and statistical analyses) were required to have been quantified in 2 experiments for competitive isoTOP-ABPP. Lysines were categorized as liganded, if they had at least one ratio R≥4 (hit fragments). For liganded lysines with R=20 for all liganding events, lysines were required to have been quantified with R=20 in two separate experiments and were further required to have been quantified with R<20 in one additional experiment.

[2] = target: T2, FAH Fumarylacetoacetase (Homo sapiens, UniProt P16930); conditions: for isoTOP-ABPP ratio (R) at liganded lysine P16930_K241: sol, 231
T2 construct: isoTOP-ABPP experiments performed in cell lysates (in vitro); endogenous in cells; host or cells: soluble proteome of human cancer cell lines (MDA-MB-231; Ramos and Jurkat also prepared)
T2 sequence (P16930 1-419): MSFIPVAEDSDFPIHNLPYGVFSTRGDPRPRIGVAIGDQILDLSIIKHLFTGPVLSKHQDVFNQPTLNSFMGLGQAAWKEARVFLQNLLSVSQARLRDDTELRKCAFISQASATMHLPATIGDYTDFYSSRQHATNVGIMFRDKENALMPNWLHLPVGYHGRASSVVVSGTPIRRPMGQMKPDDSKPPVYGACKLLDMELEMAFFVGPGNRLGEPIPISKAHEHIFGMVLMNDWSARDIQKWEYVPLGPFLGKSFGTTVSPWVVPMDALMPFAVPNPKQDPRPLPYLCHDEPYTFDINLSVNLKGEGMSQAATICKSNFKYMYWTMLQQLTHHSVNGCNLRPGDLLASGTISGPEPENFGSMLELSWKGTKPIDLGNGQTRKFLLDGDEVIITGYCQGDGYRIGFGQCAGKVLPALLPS
Protocol: as §1, §2, §3, §4

[3] = target: T3, STRN3 Striatin-3 (Homo sapiens, UniProt Q13033); conditions: for isoTOP-ABPP ratio (R) at liganded lysine Q13033_K755: sol, 231
T3 construct: isoTOP-ABPP experiments performed in cell lysates (in vitro); endogenous in cells; host or cells: soluble proteome of human cancer cell lines (MDA-MB-231, Ramos, Jurkat)
T3 sequence (Q13033 1-797): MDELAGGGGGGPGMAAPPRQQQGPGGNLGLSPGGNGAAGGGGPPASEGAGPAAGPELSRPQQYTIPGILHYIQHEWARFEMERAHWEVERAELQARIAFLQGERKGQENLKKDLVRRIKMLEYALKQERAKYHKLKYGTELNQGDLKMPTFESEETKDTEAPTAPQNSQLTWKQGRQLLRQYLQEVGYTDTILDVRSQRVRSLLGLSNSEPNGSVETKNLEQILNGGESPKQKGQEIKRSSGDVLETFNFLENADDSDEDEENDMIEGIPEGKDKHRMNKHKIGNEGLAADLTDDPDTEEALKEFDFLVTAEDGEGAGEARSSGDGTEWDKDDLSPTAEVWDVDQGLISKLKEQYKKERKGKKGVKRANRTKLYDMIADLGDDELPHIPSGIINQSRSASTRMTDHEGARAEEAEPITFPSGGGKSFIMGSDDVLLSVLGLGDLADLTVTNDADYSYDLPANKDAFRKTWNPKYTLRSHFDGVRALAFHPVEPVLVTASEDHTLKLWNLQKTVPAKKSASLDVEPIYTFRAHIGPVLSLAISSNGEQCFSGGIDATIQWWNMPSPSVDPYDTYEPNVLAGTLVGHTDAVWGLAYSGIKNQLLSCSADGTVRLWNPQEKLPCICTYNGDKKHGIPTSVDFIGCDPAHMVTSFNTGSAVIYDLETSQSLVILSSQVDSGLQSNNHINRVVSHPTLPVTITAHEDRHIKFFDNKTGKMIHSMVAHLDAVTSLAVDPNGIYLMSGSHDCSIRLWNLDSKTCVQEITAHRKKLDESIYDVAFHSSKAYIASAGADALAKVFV
Protocol: as §1, §2, §3, §4

T1 sequence (Q13561 whole entry): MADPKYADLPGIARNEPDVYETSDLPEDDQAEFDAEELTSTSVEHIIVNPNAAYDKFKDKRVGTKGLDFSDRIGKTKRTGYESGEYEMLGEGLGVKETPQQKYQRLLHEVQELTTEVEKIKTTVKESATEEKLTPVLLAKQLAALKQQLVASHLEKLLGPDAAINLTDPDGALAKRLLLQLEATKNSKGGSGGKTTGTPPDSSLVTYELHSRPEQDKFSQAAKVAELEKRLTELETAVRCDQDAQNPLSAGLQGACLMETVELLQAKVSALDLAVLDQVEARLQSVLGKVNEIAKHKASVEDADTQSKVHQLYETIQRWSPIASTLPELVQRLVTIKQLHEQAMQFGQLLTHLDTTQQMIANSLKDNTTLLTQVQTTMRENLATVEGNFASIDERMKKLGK

| SMILES | isoTOP-ABPP ratio (R) at liganded lysine Q13561_K175 ([1]; 50 uM, in vitro) | isoTOP-ABPP ratio (R) at liganded lysine P16930_K241 ([2]; 50 uM, in vitro) | isoTOP-ABPP ratio (R) at liganded lysine Q13033_K755 ([3]; 50 uM, in vitro) | isoTOP-ABPP ratio, lysine Q13561_K175 ([1]; 50 uM_231_sol_in vitro) | isoTOP-ABPP ratio, lysine P16930_K241 ([2]; 50 uM_231_sol_in vitro) | isoTOP-ABPP ratio, lysine Q13033_K755 ([3]; 50 uM_231_sol_in vitro) | other results |
| --- | --- | --- | --- | --- | --- | --- | --- |
| COc1cc(CCC(=O)Oc2ccc([N+](=O)[O-])cc2[N+](=O)[O-])cc(OC)c1OC [fragment 33, 2,4-Dinitrophenyl 3-(3,4,5-trimethoxyphenyl)propanoate] |  |  |  |  |  |  | isoTOP-ABPP reactivity ratio at lysine Q13561_K175 ([1]; 50 uM, 231 sol, in vitro): 1.6; isoTOP-ABPP reactivity ratio at lysine P16930_K241 ([2]; 50 uM, 231 sol, in vitro): 1.7; isoTOP-ABPP reactivity ratio at lysine Q13033_K755 ([3]; 50 uM, 231 sol, in vitro): 1.8 |
| O=C(Oc1ccc([N+](=O)[O-])cc1[N+](=O)[O-])C1CCN(C(=O)OCc2ccccc2)CC1 [fragment 34, 1-Benzyl 4-(2,4-dinitrophenyl) piperidine-1,4-dicarboxylate] | 1.7 | 1.2 | 3.7 |  |  |  |  |
| O=C(Oc1ccc([N+](=O)[O-])cc1[N+](=O)[O-])c1ccc2ccccc2n1 [fragment 35, 2,4-Dinitrophenyl quinoline-2-carboxylate] | 0.8 | 3.4 | 1.0 |  |  |  |  |
| O=C(Oc1ccc([N+](=O)[O-])cc1[N+](=O)[O-])c1ccc(-c2ccccc2)cc1 [fragment 37, 2,4-Dinitrophenyl [1,1′-biphenyl]-4-carboxylate] | 0.9 | 1.0 | 0.8 |  |  |  |  |
| O=C(Oc1ccc([N+](=O)[O-])cc1[N+](=O)[O-])c1ccc(Oc2ccccc2)cc1 [fragment 39, 2,4-Dinitrophenyl 4-phenoxybenzoate] | 0.8 | 1.2 | 0.9 |  |  |  |  |
| O=C(Oc1ccc([N+](=O)[O-])cc1[N+](=O)[O-])c1ccccc1Nc1cccc(C(F)(F)F)c1 [fragment 40, 2,4-Dinitrophenyl 2-((3-(trifluoromethyl)phenyl)amino)benzoate] | 0.9 | 1.4 | 1.2 |  |  |  |  |
| CC(C)(C)OC(=O)NCCCC(=O)Oc1ccc([N+](=O)[O-])cc1[N+](=O)[O-] [fragment 41, 2,4-Dinitrophenyl 4-((tert-butoxycarbonyl)amino)butanoate] | 1.3 | 1.4 | 1.3 |  |  |  |  |
| O=C(Oc1ccc([N+](=O)[O-])cc1[N+](=O)[O-])C(c1ccccc1)(c1ccccc1)c1ccccc1 [fragment 42, 2,4-Dinitrophenyl 2,2,2-triphenylacetate] | 0.9 | 0.9 | 0.9 |  |  |  |  |
| N#Cc1ccc(C(=O)Oc2ccc([N+](=O)[O-])cc2[N+](=O)[O-])cc1 [fragment 44, 2,4-Dinitrophenyl 4-cyanobenzoate] |  |  |  | 0.8 | 2.5 | 1.0 |  |
| O=C(CCc1ccc2c(c1)OCO2)Oc1ccc([N+](=O)[O-])cc1[N+](=O)[O-] [fragment 45, 2,4-Dinitrophenyl 3-(benzo[d][1,3]dioxol-5-yl)propanoate] |  |  |  | 1.6 | 1.3 | 1.3 |  |
| O=C(ON1C(=O)CCC1=O)c1cc(C(F)(F)F)cc(C(F)(F)F)c1 [fragment 46, 3,5-Bis(trifluoromethyl)benzoic acid NHS ester] |  |  |  | 0.8 | 8.1 | 11.4 |  |
| O=C(Oc1c(F)c(F)c(C(F)(F)F)c(F)c1F)c1cc(C(F)(F)F)cc(C(F)(F)F)c1 [fragment 47, 2,3,5,6-Tetrafluoro-4-(trifluoromethyl)phenyl 3,5-bis(trifluoromethyl)benzoate] |  |  |  | 1.0 | 1.2 | 0.9 |  |
| O=C(Oc1c(F)c(F)cc(F)c1F)c1cc(C(F)(F)F)cc(C(F)(F)F)c1 [fragment 48, 2,3,5,6-Tetrafluorophenyl 3,5-bis(trifluoromethyl)benzoate] |  |  |  | 0.7 | 2.3 | 1.2 |  |
| COC(=O)NC(=NC(=O)OCC1c2ccccc2-c2ccccc21)n1cccn1 [fragment 49, N-Methoxycarbonyl-N′-9-fluorenylmethoxycarbonyl-pyrazole-1-carboxamidine] |  |  |  |  |  |  | isoTOP-ABPP ratio, lysine Q13561_K175 ([1]; 100 uM_231_sol_in vitro): 1.5; isoTOP-ABPP ratio, lysine P16930_K241 ([2]; 100 uM_231_sol_in vitro): 1.3; isoTOP-ABPP ratio, lysine Q13033_K755 ([3]; 100 uM_231_sol_in vitro): 1.8 |
| CC(C)(C)OC(=O)N=C(NC(=O)OC(C)(C)C)n1cccn1 [fragment 50, reference compound] |  |  |  |  |  |  | isoTOP-ABPP ratio, lysine Q13561_K175 ([1]; 100 uM_231_sol_in vitro): 1.3; isoTOP-ABPP ratio, lysine P16930_K241 ([2]; 100 uM_231_sol_in vitro): 1.5; isoTOP-ABPP ratio, lysine Q13033_K755 ([3]; 100 uM_231_sol_in vitro): 1.2 |
| NC(=O)c1cc(C(F)(F)F)cc(C(F)(F)F)c1 [fragment 51, reference compound] |  |  |  | 0.9 | 0.9 | 0.9 |  |

Reference: patent US20210255193A1, “LYSINE REACTIVE PROBES AND USES THEREOF” (The Scripps Research Institute, priority 2017, published 2021)
